Test results taken from patent US12377101B2, “Combination therapies” (Mirati Therapeutics, Inc., priority 2018, dated 2025).
Marks after values point to notes of the source that are not given here.

Assays:
Format in all cases: in vivo, nude/nude mice
SW1573 cells = test: SW1573 tumor bearing mice, single agents and combination; conditions: for tumor growth inhibition: Day 22, Compound 478 100 mg/kg or RMC-4550 30 mg/kg p.o. daily; for Average Tumor Volume: Compound 478 100 mg/kg, RMC-4550 30 mg/kg
Protocol: (§1) Immunocompromised nude/nude mice are inoculated in the right hind flank with cells or patient derived tumor samples harboring a KRas G12C mutation. When tumor volumes reach between 200-400 mm^3 in size, the mice are divided into four groups of 5-12 mice each. The first group is administered vehicle only. […] The fourth group is administered the single agent dose of the KRas G12C inhibitor in combination with the single agent dose of the SHP-2 inhibitor. […] Tumor volumes are measured using a caliper every two-three days and tumor volumes are calculated by the formula: 0.5×[…].
(§2) 20 nude/nude mice per study were inoculated in the right hind limb with 5×10^6 SW1573 cells, KYSE410 cells or H358 cells.

KYSE410 cells = test: KYSE410 tumor bearing mice, single agents and combination; conditions: for tumor growth inhibition: Day 22, Compound 478 100 mg/kg or RMC-4550 30 mg/kg p.o. daily; for Average Tumor Volume: Compound 478 100 mg/kg, RMC-4550 30 mg/kg
Protocol: as §1, §2

H358 cells = test: H358 tumor bearing mice, single agents and combination
Protocol: as §1, §2

H2122 cells = test: H2122 tumor bearing mice, single agents and combination; conditions: for tumor growth inhibition: Day 29, Compound 478 100 mg/kg or RMC-4550 30 mg/kg p.o. daily; for Average Tumor Volume: Compound 478 100 mg/kg, RMC-4550 30 mg/kg
Protocol: as §1
Similarly, 25 nude/nude mice were inoculated in the right hind limb with 5×10^6 H2122 cells.

[1] = Study Day 0, p.o. daily, 5 mice
[2] = Study Day 0, p.o. daily, Compound 478 100 mg/kg, RMC-4550 30 mg/kg, 5 mice
[3] = Study Day 4, p.o. daily, Compound 478 100 mg/kg, RMC-4550 30 mg/kg
[4] = Study Day 6, p.o. daily, Compound 478 100 mg/kg, RMC-4550 30 mg/kg
[5] = Study Day 8, p.o. daily, Compound 478 100 mg/kg, RMC-4550 30 mg/kg
[6] = Study Day 12, p.o. daily, Compound 478 100 mg/kg, RMC-4550 30 mg/kg
[7] = Study Day 15, p.o. daily, Compound 478 100 mg/kg, RMC-4550 30 mg/kg
[8] = Study Day 18, p.o. daily, Compound 478 100 mg/kg, RMC-4550 30 mg/kg
[9] = Study Day 20, p.o. daily, Compound 478 100 mg/kg, RMC-4550 30 mg/kg
[10] = Study Day 22, p.o. daily, Compound 478 100 mg/kg, RMC-4550 30 mg/kg, RMC-4550 single agent: dosing was stopped after Day 22

C=C(F)C(=O)N1CCN(c2nc(OC[C@@H]3CCCN3C)nc3c2CCN(c2cccc4cccc(Cl)c24)C3)C[C@@H]1CC#N [Compound 478]
tumor growth inhibition (SW1573 cells): 81% | Average Tumor Volume (SW1573 cells; [1]): 335 mm^3 | Average Tumor Volume (SW1573 cells; Study Day 2, p.o. daily): 281 mm^3 | Average Tumor Volume (SW1573 cells; Study Day 4, p.o. daily): 318 mm^3 | Average Tumor Volume (SW1573 cells; Study Day 9, p.o. daily): 336 mm^3 | Average Tumor Volume (SW1573 cells; Study Day 14, p.o. daily): 363 mm^3 | Average Tumor Volume (SW1573 cells; Study Day 21, p.o. daily): 419 mm^3 | Average Tumor Volume (SW1573 cells; Study Day 22, p.o. daily): 433 mm^3 | tumor growth inhibition (KYSE410 cells): 93% | Average Tumor Volume (KYSE410 cells; [1]): 312 mm^3 | Average Tumor Volume (KYSE410 cells; Study Day 2, p.o. daily): 320 mm^3 | Average Tumor Volume (KYSE410 cells; Study Day 4, p.o. daily): 302 mm^3 | Average Tumor Volume (KYSE410 cells; Study Day 7, p.o. daily): 281 mm^3 | Average Tumor Volume (KYSE410 cells; Study Day 9, p.o. daily): 265 mm^3 | Average Tumor Volume (KYSE410 cells; Study Day 11, p.o. daily): 277 mm^3 | Average Tumor Volume (KYSE410 cells; Study Day 14, p.o. daily): 340 mm^3 | Average Tumor Volume (KYSE410 cells; Study Day 18, p.o. daily): 349 mm^3 | Average Tumor Volume (KYSE410 cells; Study Day 21, p.o. daily): 384 mm^3 | Average Tumor Volume (KYSE410 cells; Study Day 22, p.o. daily): 359 mm^3 | tumor regression (H358 cells; Day 22, Compound 478 100 mg/kg, alone or with RMC-4550 30 mg/kg, p.o. daily): 68% | Average Tumor Volume (H358 cells; [2]): 335 mm^3 | Average Tumor Volume (H358 cells; [3]): 277 mm^3 | Average Tumor Volume (H358 cells; [4]): 244 mm^3 | Average Tumor Volume (H358 cells; [5]): 200 mm^3 | Average Tumor Volume (H358 cells; [6]): 156 mm^3 | Average Tumor Volume (H358 cells; [7]): 133 mm^3 | Average Tumor Volume (H358 cells; [8]): 120 mm^3 | Average Tumor Volume (H358 cells; [9]): 113 mm^3 | Average Tumor Volume (H358 cells; [10]): 109 mm^3 | Average Tumor Volume (H358 cells; Study Day 25, p.o. daily, Compound 478 100 mg/kg, RMC-4550 30 mg/kg): 90 mm^3 | Average Tumor Volume (H358 cells; Study Day 27, p.o. daily, Compound 478 100 mg/kg, RMC-4550 30 mg/kg): 92 mm^3 | Average Tumor Volume (H358 cells; Study Day 29, Compound 478 100 mg/kg, RMC-4550 30 mg/kg p.o.): 81 mm^3 | Average Tumor Volume (H358 cells; Study Day 32, Compound 478 100 mg/kg, RMC-4550 30 mg/kg p.o.): 82 mm^3 | Average Tumor Volume (H358 cells; Study Day 34, Compound 478 100 mg/kg, RMC-4550 30 mg/kg p.o.): 84 mm^3 | Average Tumor Volume (H358 cells; Study Day 36, Compound 478 100 mg/kg, RMC-4550 30 mg/kg p.o.): 81 mm^3 | Average Tumor Volume (H358 cells; Study Day 39, Compound 478 100 mg/kg, RMC-4550 30 mg/kg p.o.): 73 mm^3 | Average Tumor Volume (H358 cells; Study Day 41, Compound 478 100 mg/kg, RMC-4550 30 mg/kg p.o.): 58 mm^3 | tumor growth inhibition (H2122 cells): 93% | Average Tumor Volume (H2122 cells; Study Day 11, p.o. daily): 382 mm^3 | Average Tumor Volume (H2122 cells; Study Day 21, p.o. daily): 430 mm^3

Cc1nc(N2CCC3(CC2)CO[C@@H](C)[C@H]3N)c(CO)nc1-c1cccc(Cl)c1Cl [RMC-4550]
tumor growth inhibition (SW1573 cells): 68% | Average Tumor Volume (SW1573 cells; [1]): 336 mm^3 | Average Tumor Volume (SW1573 cells; Study Day 2, p.o. daily): 280 mm^3 | Average Tumor Volume (SW1573 cells; Study Day 4, p.o. daily): 286 mm^3 | Average Tumor Volume (SW1573 cells; Study Day 7, p.o. daily): 336 mm^3 | Average Tumor Volume (SW1573 cells; Study Day 9, p.o. daily): 305 mm^3 | Average Tumor Volume (SW1573 cells; Study Day 11, p.o. daily): 326 mm^3 | Average Tumor Volume (SW1573 cells; Study Day 14, p.o. daily): 418 mm^3 | Average Tumor Volume (SW1573 cells; Study Day 16, p.o. daily): 421 mm^3 | Average Tumor Volume (SW1573 cells; Study Day 18, p.o. daily): 375 mm^3 | Average Tumor Volume (SW1573 cells; Study Day 21, p.o. daily): 392 mm^3 | Average Tumor Volume (SW1573 cells; Study Day 22, p.o. daily): 510 mm^3 | tumor growth inhibition (KYSE410 cells): 90% | Average Tumor Volume (KYSE410 cells; [1]): 314 mm^3 | Average Tumor Volume (KYSE410 cells; Study Day 2, p.o. daily): 311 mm^3 | Average Tumor Volume (KYSE410 cells; Study Day 4, p.o. daily): 316 mm^3 | Average Tumor Volume (KYSE410 cells; Study Day 7, p.o. daily): 299 mm^3 | Average Tumor Volume (KYSE410 cells; Study Day 9, p.o. daily): 316 mm^3 | Average Tumor Volume (KYSE410 cells; Study Day 11, p.o. daily): 309 mm^3 | Average Tumor Volume (KYSE410 cells; Study Day 14, p.o. daily): 309 mm^3 | Average Tumor Volume (KYSE410 cells; Study Day 18, p.o. daily): 303 mm^3 | Average Tumor Volume (KYSE410 cells; Study Day 21, p.o. daily): 372 mm^3 | Average Tumor Volume (KYSE410 cells; Study Day 22, p.o. daily): 377 mm^3 | tumor growth inhibition (H358 cells; Day 22, RMC-4550 30 mg/kg p.o. daily): 22% | Average Tumor Volume (H358 cells; [2]): 333 mm^3 | Average Tumor Volume (H358 cells; [3]): 336 mm^3 | Average Tumor Volume (H358 cells; [4]): 343 mm^3 | Average Tumor Volume (H358 cells; [5]): 372 mm^3 | Average Tumor Volume (H358 cells; [6]): 388 mm^3 | Average Tumor Volume (H358 cells; [7]): 399 mm^3 | Average Tumor Volume (H358 cells; [8]): 422 mm^3 | Average Tumor Volume (H358 cells; [9]): 454 mm^3 | Average Tumor Volume (H358 cells; [10]): 492‡ mm^3 | tumor growth inhibition (H2122 cells): 47% | Average Tumor Volume (H2122 cells; [1]): 350 mm^3 | Average Tumor Volume (H2122 cells; Study Day 4, p.o. daily): 515 mm^3 | Average Tumor Volume (H2122 cells; Study Day 6, p.o. daily): 578 mm^3 | Average Tumor Volume (H2122 cells; Study Day 8, p.o. daily): 614 mm^3 | Average Tumor Volume (H2122 cells; Study Day 11, p.o. daily): 683 mm^3 | Average Tumor Volume (H2122 cells; Study Day 13, p.o. daily): 750 mm^3 | Average Tumor Volume (H2122 cells; Study Day 15, p.o. daily): 856 mm^3 | Average Tumor Volume (H2122 cells; Study Day 18, p.o. daily): 880 mm^3 | Average Tumor Volume (H2122 cells; Study Day 21, p.o. daily): 916 mm^3 | Average Tumor Volume (H2122 cells; Study Day 24, p.o. daily): 1026 mm^3 | Average Tumor Volume (H2122 cells; Study Day 27, p.o. daily): 1137 mm^3 | Average Tumor Volume (H2122 cells; Study Day 29, p.o. daily): 1166 mm^3
